# Measured values from patent publication US20210045385A1, “PYRIDAZINONE-SUBSTITUTED KETOXIMES AS HERBICIDES” (FMC Corporation, priority 2018, published 2021).
# Key:
# Format in all cases: in vivo
# [1] = system: sedge, umbrella (small-flower umbrella sedge, Cyperus difformis); assay: Test B flooded paddy test, visual plant response rating; conditions: 250 g ai/ha, Flood, applied to paddy water, 2-leaf stage, evaluated after 13 to 15 days
# Summary of the method: (§1)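 Greenhouse paddy conditions applied: two-leaf plants, a 3 cm flood above the soil surface maintained throughout, and compound added to the water rather than the foliage. Plants were judged visually against controls at 13 to 15 days.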
# [2] = system: barnyardgrass (Echinochloa crus-galli); assay: as above; conditions: 250 g ai/ha, Flood, applied to paddy water, 2-leaf stage, evaluated after 13 to 15 days
# Summary of the method: as §1
# [3] = system: ducksalad (Heteranhera limosa); assay: as above; conditions: 250 g ai/ha, Flood, applied to paddy water, 2-leaf stage, evaluated after 13 to 15 days
# Summary of the method: as §1
# rice (Oryza sativa) = assay: as above; conditions: 250 g ai/ha, Flood, applied to paddy water, 2-leaf stage, evaluated after 13 to 15 days
# Summary of the method: as §1
# [4] = system: pigweed (Amaranthus retroflexus); assay: Test A postemergence, visual plant response rating; conditions: for Pigweed plant response rating (0 to 100 scale): 500 g ai/ha, postemergence, 0 is no effect, 100 is complete control; for Pigweed plant response rating: Postemergence, 125 g ai/ha, 0 to 100 scale (0 no effect, 100 complete control)
# Summary of the method: (§2)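 Formulated in a non-phytotoxic solvent mixture including surfactant, each test chemical was sprayed onto the soil surface after sowing, or onto seedlings 2 to 10 cm high. Roughly 10 days later, plants were compared with untreated controls and rated for injury from 0 (no effect) to 100 (complete control).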
# [5] = system: foxtail, green (green foxtail, Setaria viridis); assay: Test A postemergence, visual plant response rating; conditions: for Foxtail, Green plant response rating (0 to 100 scale): 500 g ai/ha, postemergence, 0 is no effect, 100 is complete control; for Foxtail, Green plant response rating: Postemergence, 125 g ai/ha, 0 to 100 scale (0 no effect, 100 complete control)
# Summary of the method: as §2
# [6] = system: blackgrass (Alopecurus myosuroides); assay: Test A postemergence, visual plant response rating; conditions: for Blackgrass plant response rating (0 to 100 scale): 500 g ai/ha, postemergence, 0 is no effect, 100 is complete control; for Blackgrass plant response rating: Postemergence, 125 g ai/ha, 0 to 100 scale (0 no effect, 100 complete control)
# Summary of the method: as §2
# [7] = system: barnyardgrass (Echinochloa crus-galli); assay: Test A postemergence, visual plant response rating; conditions: for Barnyardgrass plant response rating (0 to 100 scale): 500 g ai/ha, postemergence, 0 is no effect, 100 is complete control; for Barnyardgrass plant response rating: Postemergence, 125 g ai/ha, 0 to 100 scale (0 no effect, 100 complete control)
# Summary of the method: as §2
# [8] = system: ragweed (common ragweed, Ambrosia elatior); assay: Test A postemergence, visual plant response rating; conditions: for Ragweed plant response rating (0 to 100 scale): 500 g ai/ha, postemergence, 0 is no effect, 100 is complete control; for Ragweed plant response rating: Postemergence, 125 g ai/ha, 0 to 100 scale (0 no effect, 100 complete control)
# Summary of the method: as §2
# corn (Zea mays) = assay: Test A postemergence, visual plant response rating; conditions: for Corn plant response rating (0 to 100 scale): 500 g ai/ha, postemergence, 0 is no effect, 100 is complete control; for Corn plant response rating: Postemergence, 125 g ai/ha, 0 to 100 scale (0 no effect, 100 complete control)
# Summary of the method: as §2
# kochia (Kochia scoparia) [9] = assay: Test A postemergence, visual plant response rating; conditions: for Kochia plant response rating (0 to 100 scale): 500 g ai/ha, postemergence, 0 is no effect, 100 is complete control; for Kochia plant response rating: Postemergence, 125 g ai/ha, 0 to 100 scale (0 no effect, 100 complete control)
# Summary of the method: as §2
# [10] = system: galium (catchweed bedstraw, Galium aparine); assay: Test A postemergence, visual plant response rating; conditions: for Galium plant response rating (0 to 100 scale): 500 g ai/ha, postemergence, 0 is no effect, 100 is complete control; for Galium plant response rating: Postemergence, 125 g ai/ha, 0 to 100 scale (0 no effect, 100 complete control)
# Summary of the method: as §2
# [11] = system: Italian ryegrass (Lolium multiflorum); assay: Test A postemergence, visual plant response rating; conditions: for Ryegrass, Italian plant response rating: 125 g ai/ha, 0 to 100 scale (0 no effect, 100 complete control)
# Summary of the method: as §2
# [12] = system: wheat (Triticum aestivum); assay: Test A postemergence, visual plant response rating; conditions: for Wheat plant response rating: 0 to 100 scale (0 no effect, 100 complete control)
# Summary of the method: as §2
# [13] = system: pigweed (Amaranthus retroflexus); assay: Test A preemergence, visual plant response rating; conditions: for Pigweed plant response rating (0 to 100 scale): approx. 10 days
# Summary of the method: as §2
# [14] = system: foxtail, green (green foxtail, Setaria viridis); assay: Test A preemergence, visual plant response rating; conditions: for Foxtail, Green plant response rating (0 to 100 scale): approx. 10 days
# Summary of the method: as §2
# [15] = system: barnyardgrass (Echinochloa crus-galli); assay: Test A preemergence, visual plant response rating; conditions: for Barnyardgrass plant response rating (0 to 100 scale): approx. 10 days
# Summary of the method: as §2
# [16] = system: ragweed (common ragweed, Ambrosia elatior); assay: Test A preemergence, visual plant response rating; conditions: for Ragweed plant response rating (0 to 100 scale): approx. 10 days
# Summary of the method: as §2
# kochia (Kochia scoparia) [17] = assay: Test A preemergence, visual plant response rating; conditions: for Kochia plant response rating (0 to 100 scale): approx. 10 days
# Summary of the method: as §2
# [18] = system: Italian ryegrass (Lolium multiflorum); assay: Test A preemergence, visual plant response rating; conditions: for Ryegrass, Italian plant response rating (0 to 100 scale): approx. 10 days
# Summary of the method: as §2
# [19] = 500 g ai/ha, postemergence, 0 is no effect, 100 is complete control
# [20] = 125 g ai/ha, preemergence, 0 to 100 scale, 0 no effect, 100 complete control
Compound,"Plant response rating, Sedge, Umbrella (0 to 100 scale, 0 is no effect, 100 is complete control) [1]","Plant response rating, Barnyardgrass (0 to 100 scale, 0 is no effect, 100 is complete control) [2]","Plant response rating, Ducksalad (0 to 100 scale, 0 is no effect, 100 is complete control) [3]","Plant response rating, Rice (0 to 100 scale, 0 is no effect, 100 is complete control) (rice (Oryza sativa))",Pigweed plant response rating (0 to 100 scale) [4],Pigweed plant response rating [4],"Foxtail, Green plant response rating (0 to 100 scale) [5]","Foxtail, Green plant response rating [5]",Blackgrass plant response rating (0 to 100 scale) [6],Blackgrass plant response rating [6],Barnyardgrass plant response rating (0 to 100 scale) [7],Barnyardgrass plant response rating [7],Ragweed plant response rating (0 to 100 scale) [8],Ragweed plant response rating [8],Corn plant response rating (0 to 100 scale) (corn (Zea mays)),Corn plant response rating (corn (Zea mays)),Kochia plant response rating (0 to 100 scale) (kochia (Kochia scoparia) [9]),Kochia plant response rating (kochia (Kochia scoparia) [9]),Galium plant response rating (0 to 100 scale) [10],Galium plant response rating [10],further results
CO/N=C(\c1cccc(S(C)(=O)=O)c1)c1c(O)c(C)nn(C)c1=O [Compound 148],0,0,0,0,0,0,0,0,0,0,0,0,0,0,0,0,0,0,0,0,"Ryegrass, Italian plant response rating (0 to 100 scale) [11, 19]: 0; Ryegrass, Italian plant response rating (0 to 100 scale) ([11]; Postemergence, rate not given, approx. 10 days): 0; Wheat plant response rating ([12]; Postemergence, 500 g ai/ha): 0; Wheat plant response rating (0 to 100 scale) ([12]; Postemergence, approx. 10 days): 0; Pigweed plant response rating [13, 20]: 0; Pigweed plant response rating (0 to 100 scale) ([13]; 500 g ai/ha Preemergence): 0; Foxtail, Green plant response rating [14, 20]: 0; Foxtail, Green plant response rating (0 to 100 scale) ([14]; 500 g ai/ha Preemergence): 0; Barnyardgrass plant response rating [15, 20]: 0; Barnyardgrass plant response rating (0 to 100 scale) ([15]; 500 g ai/ha Preemergence): 0; Ragweed plant response rating [16, 20]: 0; Ragweed plant response rating (0 to 100 scale) ([16]; 500 g ai/ha Preemergence): 0; Kochia plant response rating (kochia (Kochia scoparia) [17]; [20]): 0; Kochia plant response rating (0 to 100 scale) (kochia (Kochia scoparia) [17]; 500 g ai/ha Preemergence): 0; Ryegrass, Italian plant response rating [18, 20]: 0; Ryegrass, Italian plant response rating (0 to 100 scale) ([18]; 500 g ai/ha Preemergence): 0"
Cc1ccccc1/C(=N/OC(C)C)c1c(O)c(C)nn(C)c1=O [Compound 19],0,0,0,0,80,70,50,10,50,10,60,20,80,70,0,0,30,10,90,80,"Ryegrass, Italian plant response rating (0 to 100 scale) [11, 19]: 30; Ryegrass, Italian plant response rating ([11]; Postemergence): 20; Wheat plant response rating (0 to 100 scale) [12, 19]: 0; Wheat plant response rating ([12]; Postemergence, 125 g ai/ha): 0; Pigweed plant response rating (0 to 100 scale) ([13]; 125 g ai/ha Preemergence): 0; Pigweed plant response rating (0 to 100 scale) ([13]; 500 g ai/ha Preemergence): 80; Foxtail, Green plant response rating (0 to 100 scale) ([14]; 125 g ai/ha Preemergence): 0; Foxtail, Green plant response rating (0 to 100 scale) ([14]; 500 g ai/ha Preemergence): 40; Barnyardgrass plant response rating (0 to 100 scale) ([15]; 125 g ai/ha Preemergence): 50; Barnyardgrass plant response rating (0 to 100 scale) ([15]; 500 g ai/ha Preemergence): 60; Ragweed plant response rating (0 to 100 scale) ([16]; 125 g ai/ha Preemergence): 50; Ragweed plant response rating (0 to 100 scale) ([16]; 500 g ai/ha Preemergence): 80; Kochia plant response rating (0 to 100 scale) (kochia (Kochia scoparia) [17]; 125 g ai/ha Preemergence): 0; Kochia plant response rating (0 to 100 scale) (kochia (Kochia scoparia) [17]; 500 g ai/ha Preemergence): 0; Ryegrass, Italian plant response rating (0 to 100 scale) ([18]; 125 g ai/ha Preemergence): 0; Ryegrass, Italian plant response rating (0 to 100 scale) ([18]; 500 g ai/ha Preemergence): 50"
CCO/N=C(\c1ccccc1C)c1c(O)c(C)nn(C)c1=O [Compound 14],0,0,0,0,80,20,40,20,60,30,40,20,70,60,10,0,50,20,90,90,"Ryegrass, Italian plant response rating (0 to 100 scale) [11, 19]: 60; Ryegrass, Italian plant response rating ([11]; Postemergence): 60; Wheat plant response rating (0 to 100 scale) [12, 19]: 0; Wheat plant response rating ([12]; Postemergence, 125 g ai/ha): 0; Pigweed plant response rating (0 to 100 scale) ([13]; 125 g ai/ha Preemergence): 0; Pigweed plant response rating (0 to 100 scale) ([13]; 500 g ai/ha Preemergence): 50; Foxtail, Green plant response rating (0 to 100 scale) ([14]; 125 g ai/ha Preemergence): 20; Foxtail, Green plant response rating (0 to 100 scale) ([14]; 500 g ai/ha Preemergence): 70; Barnyardgrass plant response rating (0 to 100 scale) ([15]; 125 g ai/ha Preemergence): 40; Barnyardgrass plant response rating (0 to 100 scale) ([15]; 500 g ai/ha Preemergence): 80; Ragweed plant response rating (0 to 100 scale) ([16]; 125 g ai/ha Preemergence): 80; Ragweed plant response rating (0 to 100 scale) ([16]; 500 g ai/ha Preemergence): 80; Kochia plant response rating (0 to 100 scale) (kochia (Kochia scoparia) [17]; 125 g ai/ha Preemergence): 0; Kochia plant response rating (0 to 100 scale) (kochia (Kochia scoparia) [17]; 500 g ai/ha Preemergence): 20; Ryegrass, Italian plant response rating (0 to 100 scale) ([18]; 125 g ai/ha Preemergence): 20; Ryegrass, Italian plant response rating (0 to 100 scale) ([18]; 500 g ai/ha Preemergence): 90"
